Where “and” joins values, the source holds several entries; their conditions need not be identical. Equal entries are not always repeated. Structures can show the parent of a compound that is named as a salt. Where two headings read alike, the source gives them in different places.
What was measured:
Assay in all cases: Microculture tetrazolium assay
Type in all cases: cell-based
LOX = test system: LOX
SKVLB = conditions: for VLB/OV3: IC50 ratio SKVLB/SKOV3; for IC50: SKVLB
HT29 = test system: HT29
SKOV3 = test system: SKOV3
T47D = test system: T47D
[1] = Homo sapiens, HT-29, HT29, read-out: IC50
[2] = Homo sapiens, SK-OV-3, SKOV3, read-out: IC50

Row | IC50 (LOX; read-out: IC50) | IC50 (SKVLB; read-out: IC50) | IC50 (HT29; [1]) [nM] | IC50 (SKOV3; [2]) [nM] | IC50 (T47D; Homo sapiens, read-out: IC50) [nM] | Structure (SMILES) | VLB/OV3 (SKVLB) | other results
1 | 62.3 nM | 1460 nM | – | 5.6 | 43.9 | CC(=O)[C@@H]1Cc2c(O)c3c(c(O)c2[C@@H](O[C@H]2C[C@H](N)[C@H](O)[C@H](C)O2)O1)C(=O)c1ccccc1C3=O [BCH-1194, (1'S,1R,3S)-Methyl-[5,12-dihydroxy-1-(2',3',6'-trideoxy-3'-amino-4'-hydroxy-L-lyxohexopyranose)-6,11-dioxo-3,4,6,11-tetrahydroanthraceno-(2,3-C)pyran-3-yl]ketone hydrochloride] | 260.71 | –
2 | 684 nM | 2530 nM | 1840 | 972 | – | C=CC[C@H]1CC2=C(C(=O)c3cc4ccccc4c(O)c3C2=O)[C@H](O[C@H]2C[C@H](NC(=O)C(F)(F)F)[C@H](O)[C@H](C)O2)O1 [BCH-1686, (1'S,1S,3S)-3-(6-hydroxy-1-(2',3',6'-trideoxy-3'-trifluoroacetamido-4'-hydroxy-L-lyxohexopyranose)-5,12-dioxo-3,4,5,12-tetrahydroanthraceno-[2,3-C]pyran-3-yl)propene] | 2.60 | –
3 | 741 nM | 3350 nM | – | 672 | 1410 | CC(=O)[C@H]1Cc2c(O)c3c(c(O)c2[C@H](O[C@H]2C[C@H](N)[C@H](O)[C@H](C)O2)O1)C(=O)c1ccccc1C3=O [BCH-1195, (1'S,1S,3R)-Methyl-[5,12-dihydroxy-1-(2',3',6'-trideoxy-3'-amino-4'-hydroxy-L-lyxohexopyranose)-6,11,dioxo-3,4,6,11-tetrahydroanthraceno-(2,3-C)pyran-3-yl]ketone hydrochloride] | 4.99 | –
4 | 891 nM | 3260 nM | – | 1130 | 1330 | CC[C@@H]1CC2=C(C(=O)c3cc4ccccc4c(O)c3C2=O)[C@@H](O[C@H]2C[C@H](NC(=O)C(F)(F)F)[C@H](O)[C@H](C)O2)O1 [BCH-1606, (1'S,1R,3R)-5,12-dioxo-3-ethyl-6-hydroxy-1-(2',3',6'-trideoxy-3'-trifluoroacetamido-4'-hydroxy-L-lyxohexopyranose)-3,4,5,12-tetrahydroanthraceno[2,3-c]pyran] | 2.88 | –
5 | 454 nM | 671 nM | 123 | 914 | – | CC(=O)[C@H]1CC2=C(C(=O)c3cc4ccccc4c(O)c3C2=O)[C@H](O[C@@H]2O[C@@H](C)[C@@H](O)[C@@H](O)C2I)O1 (stereo partly shown) [BCH-1681] | 0.73 | –
6 | 706 nM | 1860 nM | 1240 | 791 | – | C=CC[C@@H]1CC2=C(C(=O)c3cc4ccccc4c(O)c3C2=O)[C@@H](O[C@H]2C[C@H](NC(=O)C(F)(F)F)[C@H](O)[C@H](C)O2)O1 [BCH-1687, (1S,1R,3R)-3-(6-hydroxy-1-(2',3',6'-trideoxy-3'-trifluoroacetamido-4'-hydroxy-L-lyxohexopyranose)-5,12-dioxo-3,4,5,12-tetrahydroanthraceno-[2,3-c]pyran-3-yl)propene] | 2.35 | –
7 | 2260 nM | 3830 nM | 2240 | 2810 | – | CC(=O)C1CC2=C(C(=O)c3cc4ccccc4c(O)c3C2=O)C(O[C@H]2CC[C@H](NC(=O)C(F)(F)F)[C@H](C)O2)O1 (mixture of isomers) [BCH-1680, (1'S,1S,3R) and (1'S, 1R, 3S)-methyl-{6-hydroxy-1(2',3',4',6'-tetradeoxy-4'-trifluoroacetamido-L-lyxohexopyranose)-5,12-dioxo-3,4,5,12-tetrahydroanthraceno-[2,3-c]pyran-3-yl}ketone] | 1.36 | –
8 | 850 nM and 493 nM | 1400 nM and 2200 nM | – | 874 | 1310 | CC(=O)[C@@H]1CC2=C(C(=O)c3cc4ccccc4c(O)c3C2=O)[C@@H](O[C@H]2C[C@H](N)[C@H](O)[C@H](C)O2)O1 [BCH-1128] | 1.60 and 1.83 | IC50 (T47D; read-out: IC50): 1910 nM; IC50 (SKOV3; SKOV3, read-out: IC50): 1200 nM

Continued, compound first:

Row | Structure (SMILES) | IC50 (LOX; read-out: IC50) | IC50 (SKVLB; read-out: IC50) | IC50 (HT29; [1]) [nM] | IC50 (SKOV3; [2]) [nM] | IC50 (T47D; Homo sapiens, read-out: IC50) [nM] | VLB/OV3 (SKVLB) | other results
9 | CC(=O)[C@@H]1Cc2c(O)c3c(c(O)c2[C@@H](O[C@@H]2O[C@@H](C)[C@@H](O)[C@@H](O)C2I)O1)C(=O)c1ccccc1C3=O (stereo partly shown) [BCH-1672] | 232 nM | 990 nM | 1670 | 343 | – | 2.89 | –
10 | CC(=O)[C@@H]1Cc2c(O)c3c(c(O)c2[C@@H](O[C@H]2O[C@H](CO)[C@@H](O)[C@H](O)[C@H]2N)O1)C(=O)c1ccccc1C3=O [BCH-1685, (1'R, 1R,3S)-3-aceto-5,12-dihydroxy-1(2-deoxy-2-amino-D-glucopyranose)-6,11-dioxo-3,4,6,11-tetrahydro-1H-anthra-[2,3-c]pyran] | 683 nM | 53200 nM | 1930 | 810 | – | 65.68 | –
11 | C=CC[C@@H]1Cc2c(O)c3c(c(O)c2[C@@H](O[C@H]2C[C@H](NC(=O)C(F)(F)F)[C@H](O)[C@H](C)O2)O1)C(=O)c1ccccc1C3=O [BCH-2108, (1'S,1R,3R)-3-(5,12-dihydroxy-1-(2',3',6'-trideoxy-3'-trifluoroacetamido-4'-hydroxy-L-lyxohexopyranose)-6,11-dioxo-3,4,5,12-tetrahydroanthraceno-[2,3-c]pyran-3-yl)propene] | – | 14300 nM | 8520 | 11400 | 11900 | 1.25 | –
12 | CC(=O)[C@@H]1CC2=C(C(=O)c3cc4ccccc4c(O)c3C2=O)[C@@H](O[C@H]2C[C@H](NC(=O)C(F)(F)F)[C@H](O)[C@H](C)O2)O1 [BCH-730, (1S',1R,3S)-Methyl-(6-hydroxy-1-(3'-trifluoroacyldaunosamine)-5,12-dioxo-3,4,5,12-tetrahydroanthraceno[2,3-C]pyran-3-yl) ketone] | 1660 nM | 2010 nM and 2880 nM | – | 3520 | 3620 | – | IC50 (LOX): 1780 nM; IC50 (T47D; read-out: IC50): 3080 nM
13 | C=CC[C@H]1Cc2c(O)c3c(c(O)c2[C@H](O[C@H]2C[C@H](NC(=O)NCCCl)[C@H](O)[C@H](C)O2)O1)C(=O)c1ccccc1C3=O [BCH-2110] | – | – | – | – | – | 1.14 | IC50 (T47D; Homo sapiens): 2460 nM; IC50 (SKVLB): 2830 nM; IC50 (HT29; Homo sapiens, HT-29, HT29): 1510 nM; IC50 (SKOV3; Homo sapiens, SK-OV-3, SKOV3): 2480 nM
14 | CC(=O)C1Cc2c(O)c3c(c(O)c2C(OC2CCC(NC(=O)N(CCCl)N=O)CC2)O1)C(=O)c1ccccc1C3=O [BCH-2116, (1R,3S) and (1S ,3R)-3-aceto-6,11-dioxo-5,12-dihydroxy-1(4-chloroethylnitrosoureido-cyclohexyl-oxy)-3,4,6,11-tetrahydro-1H-anthra[2,3-C]pyran] | – | – | – | – | – | 2.68 | IC50 (T47D; Homo sapiens): 22700 nM; IC50 (SKVLB): 50100 nM; IC50 (HT29; Homo sapiens, HT-29, HT29): 23300 nM; IC50 (SKOV3; Homo sapiens, SK-OV-3, SKOV3): 18700 nM
15 | COC(=O)[C@H](C)O[C@@H]1OC(C(=O)OC)(C(=O)OC)CC2=C1C(=O)c1cc3ccccc3c(O)c1C2=O [BCH-1668, (1R,1'S)-3,3-Bis-carbomethoxy-1-(1'-carbomethoxyethoxy)-5,12-dioxo-6-hydroxy-3,4,5,12-tetrahydroanthraceno[2,3-C]pyran] | 5200 nM | 6200 nM | 5700 | 6200 | – | – | –
16 | COP(=O)(CC(=O)[C@H]1CC2=C(C(=O)c3cc4ccccc4c(O)c3C2=O)[C@H](O[C@H]2C[C@H](NC(=O)C(F)(F)F)[C@H](O)[C@H](C)O2)O1)OC [BCH-1679] | – | – | – | – | – | – | IC50 (LOX): 1100 nM; IC50 (SKVLB): 3600 nM; IC50 (HT29; Homo sapiens, HT-29, HT29): 1100 nM; IC50 (SKOV3; Homo sapiens, SK-OV-3, SKOV3): 1200 nM
17 | CC(=O)C1CC2=C(C(=O)c3cc4ccccc4c(O)c3C2=O)C(OC[C@@H](O)CO)S1 (stereo partly shown) [BCH-1670] | 673 nM | 680 nM | 342 | 547 | – | 1.24 | –
18 | CC[C@H]1CC2=C(C(=O)c3cc4ccccc4c(O)c3C2=O)[C@H](O[C@H]2C[C@H](N)[C@H](O)[C@H](C)O2)O1 [BCH-1610, (1'S,1S,3S)-5,12-dioxo-3-ethyl-6-hydroxy-1-(2',3',6'-trideoxy-3'-amino-4'-hydroxy-L-lyxohexopyranose)-3,4,5,12-tetrahydroanthraceno[2,3-c]pyran hydrochloride] | – | – | – | – | – | 3.30 | IC50 (LOX): 845 nM; IC50 (T47D; Homo sapiens): 1360 nM; IC50 (SKVLB): 2770 nM; IC50 (SKOV3; Homo sapiens, SK-OV-3, SKOV3): 839 nM
19 | CC(NC(=O)C(F)(F)F)C1Cc2c(O)c3c(c(O)c2C(O[C@H]2C[C@H](O)[C@H](O)[C@H](C)O2)O1)C(=O)c1ccccc1C3=O (stereo partly shown) [BCH-1682] | 16400 nM | > 100000 nM | 25800 | 24700 | – | – | –
20 | COP(=O)(CC(=O)[C@@H]1CC2=C(C(=O)c3cc4ccccc4c(O)c3C2=O)[C@@H](O[C@H]2C[C@H](NC(=O)C(F)(F)F)[C@H](O)[C@H](C)O2)O1)OC [BCH-1678] | – | – | – | – | – | 2.54 | IC50 (LOX): 3770 nM; IC50 (SKVLB): 13600 nM; IC50 (HT29; Homo sapiens, HT-29, HT29): 5650 nM; IC50 (SKOV3; Homo sapiens, SK-OV-3, SKOV3): 5360 nM
21 | CC(=O)CC1CC2=C(C(=O)c3cc4ccccc4c(O)c3C2=O)C(O[C@H]2C[C@H](N)[C@H](O)[C@H](C)O2)O1 (mixture of isomers) [BCH-2111, (1'S,1R,3S) and (1'S,1S,3R)-3-6-hydroxy-1-(2',3',6'-trideoxy-3'-amino-4'-hydroxy-L-lyxohexopyranose-5,12-dioxo-3,4,5,12-tetrahydroanthraceno[2,3-c]pyran-3-yl)propanone hydrochloride] | – | 11800 nM | 954 | 2140 | 2420 | 5.51 | –
22 | CC(=O)C1CC2=C(C(=O)c3cc4ccccc4c(O)c3C2=O)C(OC[C@H](O)CO)O1 (stereo partly shown) [BCH-1669] | 631 nM | 1050 nM | 591 | 1210 | – | 0.87 | –
23 | CC(=O)C1Cc2c(O)c3c(c(O)c2C(O[C@H]2C[C@H](N4CCOCC4)[C@H](O)[C@H](C)O2)O1)C(=O)c1ccccc1C3=O (stereo partly shown) [BCH-1193] | – | – | – | – | – | 2.46 | IC50 (T47D): 2570 nM and 4160 nM; IC50 (SKVLB): 4790 nM and 4920 nM; IC50 (HT29; HT29): 1040 nM and 940 nM; IC50 (SKOV3; SKOV3): 1950 nM

Reference: patent publication US5593970A, “Heterocyclic anthracycline analogs” (priority 1994, dated 1997)
